PMC7562955 (Nature Communications, 2020)

Molecular target: T1, TLR7 (Homo sapiens, UniProt Q9NYK1)
T1 sequence (Q9NYK1 27-1049): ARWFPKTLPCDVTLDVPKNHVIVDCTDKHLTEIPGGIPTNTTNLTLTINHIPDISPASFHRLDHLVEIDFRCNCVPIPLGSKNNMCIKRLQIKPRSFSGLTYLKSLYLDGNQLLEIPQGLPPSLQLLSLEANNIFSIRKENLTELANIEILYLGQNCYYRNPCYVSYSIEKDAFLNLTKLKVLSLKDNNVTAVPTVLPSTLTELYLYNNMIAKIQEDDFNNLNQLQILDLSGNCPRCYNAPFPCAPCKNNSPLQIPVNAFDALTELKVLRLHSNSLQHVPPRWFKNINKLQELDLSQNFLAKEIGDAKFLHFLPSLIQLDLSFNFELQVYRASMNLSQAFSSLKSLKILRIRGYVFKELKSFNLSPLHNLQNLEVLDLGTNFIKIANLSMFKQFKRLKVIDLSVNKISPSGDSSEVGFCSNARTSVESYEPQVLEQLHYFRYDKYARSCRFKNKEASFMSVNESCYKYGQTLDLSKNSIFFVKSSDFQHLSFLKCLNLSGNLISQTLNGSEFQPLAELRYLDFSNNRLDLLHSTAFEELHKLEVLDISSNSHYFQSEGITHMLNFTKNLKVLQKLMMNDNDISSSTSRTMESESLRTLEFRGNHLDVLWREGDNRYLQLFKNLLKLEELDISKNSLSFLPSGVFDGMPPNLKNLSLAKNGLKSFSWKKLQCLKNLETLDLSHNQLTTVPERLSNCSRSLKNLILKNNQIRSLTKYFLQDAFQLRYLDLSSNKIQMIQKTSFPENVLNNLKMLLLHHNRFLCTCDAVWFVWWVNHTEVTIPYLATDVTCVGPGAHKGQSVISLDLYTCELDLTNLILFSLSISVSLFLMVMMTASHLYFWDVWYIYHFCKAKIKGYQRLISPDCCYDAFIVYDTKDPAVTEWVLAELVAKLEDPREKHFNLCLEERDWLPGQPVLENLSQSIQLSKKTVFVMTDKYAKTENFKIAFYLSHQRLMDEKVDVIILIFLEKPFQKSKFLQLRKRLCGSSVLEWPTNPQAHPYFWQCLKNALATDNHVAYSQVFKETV
Assay: TLR7 inhibition assay in primary human PBMCs (R848-induced IFN-α, ELISA)
Format: cell-based
Parameters: Human Peripheral Blood Mononuclear cells (hPBMCs) were collected from healthy adult donors; endogenous in cells; host or cells: primary human PBMCs (plasmacytoid DCs produce the IFN-α)
Conditions: for R848-induced IFN-α production: 2.5 μM; for Mean IFN-α / IFN-α: antagonist 2.5 μM; for Mean IFN-α: n = 3; for IFN-α: single replicate
Method: Human Peripheral Blood Mononuclear cells (hPBMCs) were collected from healthy adult donors. hPBMCs were cultured in round-bottom 96-well plates (BD Falcon, Durham, NC, USA) with a density of 5 × 10^5 cells/well. Plated cells were pretreated with DMSO or 2.5 μM inhibitors for 3 h and then stimulated by indicated ligands, such as R848 or TLR1/2 specific ligand Pam3CSK4 (Invivogen, HongKong, China), for 20 h in […] of RPMI 1640 medium (Gibco, Paisley, UK) supplemented with 10% FBS, Penicillin-Streptomycin-Glutamine (Gibco, Paisley, UK), 50 μM 2-ME medium at 37 °C in the presence of 5% CO2. Supernatants were collected to measure secreted cytokines by ELISA. Concentration of human IFN-α and TNF-α in the supernatants was measured with Verikine Human IFN-α Multi-Subtype Serum ELISA Kit (PBL Assay Science, Piscataway, NJ, USA) and Human TNF-α Uncoated ELISA (ThermoFisher Scientific, Carlsbad, CA, USA), respectively. This study was approved by the Research Ethics Committee of IMSUT (accession number: 30-100-B20190419).

SMILES	R848-induced IFN-α production	Mean IFN-α (activator None) [pg/mL]	IFN-α (activator None) [pg/mL]	Mean IFN-α (activator R848 (200 nM)) [pg/mL]	IFN-α (activator R848 (200 nM)) [pg/mL]
CCOc1nc(N)c2nc(-c3cncc(F)c3)n(Cc3ccc(CN4C[C@@H]5C[C@H]4CN5C)cc3)c2n1 [Cpd-6]	completely blocked	0	0	0	0
CCOc1nc(C)c2nc(-c3cncc(F)c3)n(Cc3ccc(CN4C[C@@H]5C[C@H]4CN5C)cc3)c2n1 [Cpd-7]	completely blocked	0	0	0	0
